Results: ChEMBL document CHEMBL5537108, “A comprehensive review on the global efforts on vaccines and repurposed drugs for combating COVID-19” (Eur J Med Chem, 2023)
Where a name gives a salt, the structure may show the parent alone.

What was measured:
Assay type in all cases: functional, organism-based
Ebolavirus [1] = experiment: Antiviral activity against Ebola virus infected in African green monkey Vero cells incubated for 3 days by immunofocus assay; details: Orthoebolavirus, 72 h
Ebolavirus [2] = experiment: Antiviral activity against EBOV infected in human Huh-7 cells assessed as reduction in viral replication; details: Orthoebolavirus
SARS-CoV-2 [3] = experiment: Antiviral activity against SARS-CoV-2 infected in African green monkey Vero cells assessed as reduction in virus-induced cytopathic effect incubated for 5 days by microscopic analysis; details: Severe acute respiratory syndrome coronavirus 2, Vero, 120 h
SARS-CoV-2 [4] = experiment: Antiviral activity against SARS-CoV-2 B.1.1.7 infected in human Calu-3 cells assessed as inhibition of viral infection measured after 48 hrs by Hoechst 33342 staining based analysis; details: Severe acute respiratory syndrome coronavirus 2, B.1.1.7, Calu-3, 48 h
[5] = tested on: Middle East respiratory syndrome-related coronavirus; experiment: Antiviral activity against MERS-CoV infected in human Calu-3 cells assessed as inhibition of viral growth by infection assay
SARS-CoV-2 [6] = experiment: Antiviral activity against SARS-CoV-2 NRC-03-nhCoV infected in african green monkey Vero E6 cells assessed as inhibition of virus-induced cytopathic effect measured after 72 hrs by crystal violet staining based assay; details: Severe acute respiratory syndrome coronavirus 2, NRC-03-nhCoV, Vero C1008, 72 h
SARS-CoV-2 [7] = experiment: Antiviral activity against SARS-CoV-2 infected in African green monkey Vero cells assessed as reduction in viral replication measured after 72 hrs by qRT-PCR analysis; details: Severe acute respiratory syndrome coronavirus 2, Vero
[8] = tested on: Middle East respiratory syndrome-related coronavirus; experiment: Antiviral activity against MERS-CoV infected in african green monkey Vero E6; details: Vero C1008

SMILES: CCC(CC)COC(=O)[C@H](C)N[P@](=O)(OC[C@H]1O[C@@](C#N)(c2ccc3c(N)ncnn23)[C@H](O)[C@@H]1O)Oc1ccccc1
- EC50 (Ebolavirus [1]): 0.77 µM
- EC50 (Ebolavirus [2]): 61.9 µM
- EC50 (SARS-CoV-2 [3]): 0.01 µM
- EC50 (SARS-CoV-2 [4]): 67 µM

SMILES: CN(C)C(=O)COC(=O)Cc1ccc(OC(=O)c2ccc(NC(=N)N)cc2)cc1 [CAMOSTAT]
- EC50 [5]: 0.005 µM

SMILES: Cc1nc(Nc2ncc(C(=O)Nc3c(C)cccc3Cl)s2)cc(N2CCN(CCO)CC2)n1 [DASATINIB ANHYDROUS]
- EC50 (SARS-CoV-2 [6]): 2.1 µM

SMILES: Cc1cccc(C)c1OCC(=O)N[C@@H](Cc1ccccc1)[C@@H](O)C[C@H](Cc1ccccc1)NC(=O)[C@H](C(C)C)N1CCCNC1=O [LOPINAVIR]
- EC50 (SARS-CoV-2 [7]): 5.73 µM

SMILES: N=C(N)Nc1ccc(C(=O)Oc2ccc3cc(C(=N)N)ccc3c2)cc1 [NAFAMOSTAT MESYLATE]
- EC50 [5]: 0.087 µM

SMILES: CC(C)c1nc(CN(C)C(=O)N[C@H](C(=O)N[C@@H](Cc2ccccc2)C[C@H](O)[C@H](Cc2ccccc2)NC(=O)OCc2cncs2)C(C)C)cs1 [RITONAVIR]
- EC50 (SARS-CoV-2 [7]): 8.63 µM

SMILES: CN1CCN(CCOc2cc(OC3CCOCC3)c3c(Nc4c(Cl)ccc5c4OCO5)ncnc3c2)CC1 [SARACATINIB]
- EC50 [8]: 10 µM
